Measured values from paper PMC9186362, “Design and biological evaluation of substituted 5,7-dihydro-6H-indolo[2,3-c]quinolin-6-one as novel selective Haspin inhibitors” (Journal of Enzyme Inhibition and Medicinal Chemistry, 2022).

Assays:
[1] = tested on: endogenous Haspin (H3T3ph) in U-2 OS cells; experiment: Endogenous Haspin activity, H3T3ph immunofluorescence; type: cell-based, human; details: 0.5 µM, 16 h, early mitotic U-2 OS cells
Description: U-2 OS cells were grown on glass coverslips, treated for 16 h than fixed with 4% paraformaldehyde in PBS, permeabilized by 0.15% Triton-X100 for 2 min, blocked for 15 min in 4% BSA in PBS and processed using standard immunofluorescence protocols. Primary antibodies included anti-phospho-Thr3 Histone H3 (1/1000 dilution, Millipore) and anti-α-tubulin (1/5000 dilution, clone B512, Sigma). Images were acquired with a Coolsnap HQ2 CCD camera (Photometrics) on a Zeiss Axio microscope (Carl Zeiss) using a 63x NA 1.40 objective. Image acquisition and processing were performed using Metamorph (Molecular Device). Quantification of signal intensity was performed using ImageJ software (NIH).

AMPK (A1/B1/G2) = molecular target: T1, AMPK (A1/B1/G2) (Homo sapiens, UniProt Q13131); experiment: LanthaScreen Binding - Eu-anti-His; details: read-out: Percentage of inhibition
T1 construct: purchased Life Technologies (SelectScreen service)
Description: (§1) We further evaluated the selectivity profile of compound 55 on a larger panel of kinases (SelectScreen Whole Panel, Life Technologies). The inhibition profile of 55, evaluated at 1 μM, is depicted on a dendrogram on Figure 3 where kinases inhibited by a minimum of 80% are shown. A full list of the kinases tested is shown on Table S1 in supplementary information.

AMPK (A2/B2/G2) = molecular target: T2, AMPK (A2/B2/G2) (Homo sapiens, UniProt P54646); experiment: LanthaScreen Binding - Eu-anti-His; details: read-out: Percentage of inhibition
T2 construct: purchased Life Technologies (SelectScreen service)
Description: as §1

CLK4 = molecular target: T3, CLK4 (Homo sapiens, UniProt Q9HAZ1); experiment: LanthaScreen Binding - Eu-anti-His; details: read-out: Percentage of inhibition
T3 construct: purchased Life Technologies (SelectScreen Whole Panel)
Description: as §1

DAPK2 = molecular target: T4, DAPK2 (Homo sapiens, UniProt Q9UIK4); experiment: LanthaScreen Binding - Eu-anti-His; details: read-out: Percentage of inhibition
T4 construct: purchased Life Technologies (SelectScreen service)
Description: as §1

EPHA3 = EPHA3 (Homo sapiens, UniProt P29320); experiment: LanthaScreen Binding - Eu-anti-His; details: read-out: Percentage of inhibition
Description: as §1

MAP2K1 (MEK1) = molecular target: T5, MAP2K1 (MEK1) (Homo sapiens, UniProt Q02750); experiment: LanthaScreen Binding - Eu-anti-His; details: read-out: Percentage of inhibition
T5 construct: purchased Life Technologies (SelectScreen Whole Panel)
Description: as §1

[2] = molecular target: T6, MAP2K1 (MEK1) S218D S222D (Homo sapiens, UniProt Q02750, S218D/S222D); experiment: LanthaScreen Binding - Eu-anti-His; details: read-out: Percentage of inhibition
T6 construct: purchased Life Technologies (SelectScreen Whole Panel)
Description: as §1

MAP2K6 (MKK6) = molecular target: T7, MAP2K6 (MKK6) (Homo sapiens, UniProt P52564); experiment: LanthaScreen Binding - Eu-anti-His; details: read-out: Percentage of inhibition
T7 construct: purchased Life Technologies (SelectScreen Whole Panel service)
Description: as §1

MAPK8 (JNK1) = molecular target: T8, MAPK8 (JNK1) (Homo sapiens, UniProt P45983); experiment: LanthaScreen Binding - Eu-anti-His; details: read-out: Percentage of inhibition
T8 construct: purchased Life Technologies (SelectScreen Whole Panel service)
Description: as §1

RIPK2 = RIPK2 (Homo sapiens, UniProt O43353); experiment: LanthaScreen Binding - Eu-anti-His; details: read-out: Percentage of inhibition
Description: as §1

ULK3 = molecular target: T9, ULK3 (Homo sapiens, UniProt Q6PHR2); experiment: LanthaScreen Binding - Eu-anti-His; details: read-out: Percentage of inhibition
T9 construct: purchased Life Technologies (SelectScreen Whole Panel service)
Description: as §1

WNK3 = molecular target: T10, WNK3 (Homo sapiens, UniProt Q9BYP7); experiment: LanthaScreen Binding - Eu-anti-His; details: read-out: Percentage of inhibition
T10 construct: purchased Life Technologies (SelectScreen Whole Panel)
Description: as §1

ACVR1B (ALK4) = molecular target: T11, ACVR1B (ALK4) (Homo sapiens, UniProt P36896); experiment: SelectScreen ZLYTE; type: biochemical; details: ATP Km, read-out: Percentage of inhibition
T11 construct: purchased Life Technologies (SelectScreen Whole Panel)
Method in brief: (§2)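 Compound tested at 1 μM only; no dose–response. Data are % inhibition from a whole-panel kinase screen.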

CDK1/cyclin B = molecular target: T12, CDK1/cyclin B (Homo sapiens, UniProt P06493); experiment: SelectScreen ZLYTE; type: biochemical; details: ATP Km, read-out: Percentage of inhibition
T12 construct: purchased Life Technologies
Method in brief: as §2

[3] = molecular target: CSNK1E (CK1 epsilon) R178C (Homo sapiens, UniProt P49674, R178C); experiment: SelectScreen ZLYTE; type: biochemical; details: ATP Km, read-out: Percentage of inhibition
Method in brief: as §2

DYRK1A = molecular target: T13, DYRK1A (Homo sapiens, UniProt Q13627); experiment: SelectScreen ZLYTE; type: biochemical; details: ATP Km, read-out: Percentage of inhibition
T13 construct: purchased Life Technologies
Method in brief: as §2

EPHA1 = molecular target: T14, EPHA1 (Homo sapiens, UniProt P21709); experiment: SelectScreen ZLYTE; type: biochemical; details: ATP Km, read-out: Percentage of inhibition
T14 construct: purchased Life Technologies
Method in brief: as §2

ERBB4 (HER4) = ERBB4 (HER4) (Homo sapiens, UniProt Q15303); experiment: SelectScreen ZLYTE; type: biochemical; details: ATP Km, read-out: Percentage of inhibition
Method in brief: as §2

FRAP1 (mTOR) = FRAP1 (mTOR) (Homo sapiens, UniProt P42345); experiment: SelectScreen ZLYTE; type: biochemical; details: ATP Km, read-out: Percentage of inhibition
Method in brief: as §2

HIPK4 = molecular target: T15, HIPK4 (Homo sapiens, UniProt Q8NE63); experiment: SelectScreen ZLYTE; type: biochemical; details: ATP Km, read-out: Percentage of inhibition
T15 construct: purchased Life Technologies (SelectScreen service)
Method in brief: as §2

JAK2 JH1 JH2 V617F = molecular target: T16, JAK2 JH1 JH2 V617F (Homo sapiens, UniProt O60674, V617F); experiment: SelectScreen ZLYTE; type: biochemical; details: ATP Km, read-out: Percentage of inhibition
T16 construct: JAK2 JH1 JH2; purchased Life Technologies
Method in brief: as §2

KIT T670I = molecular target: T17, KIT T670I (Homo sapiens, UniProt P10721, T670I); experiment: SelectScreen ZLYTE; type: biochemical; details: ATP Km, read-out: Percentage of inhibition
T17 construct: purchased Life Technologies
Method in brief: as §2

KIT V560G = molecular target: T18, KIT V560G (Homo sapiens, UniProt P10721, V560G); experiment: SelectScreen ZLYTE; type: biochemical; details: ATP Km, read-out: Percentage of inhibition
T18 construct: purchased Life Technologies
Method in brief: as §2

MAPK12 (p38 gamma) = MAPK12 (p38 gamma) (Homo sapiens, UniProt P53778); experiment: SelectScreen ZLYTE; type: biochemical; details: ATP Km, read-out: Percentage of inhibition
Method in brief: as §2

MAPK13 (p38 delta) = MAPK13 (p38 delta) (Homo sapiens, UniProt O15264); experiment: SelectScreen ZLYTE; type: biochemical; details: ATP Km, read-out: Percentage of inhibition
Method in brief: as §2

MAPKAPK5 (PRAK) = MAPKAPK5 (PRAK) (Homo sapiens, UniProt Q8IW41); experiment: SelectScreen ZLYTE; type: biochemical; details: ATP Km, read-out: Percentage of inhibition
Method in brief: as §2

MYLK2 (skMLCK) = MYLK2 (skMLCK) (Homo sapiens, UniProt Q9H1R3); experiment: SelectScreen ZLYTE; type: biochemical; details: ATP Km, read-out: Percentage of inhibition
Method in brief: as §2

NIM1K = molecular target: T19, NIM1K (Homo sapiens, UniProt Q8IY84); experiment: SelectScreen ZLYTE; type: biochemical; details: ATP Km, read-out: Percentage of inhibition
T19 construct: purchased Life Technologies (SelectScreen)
Method in brief: as §2

RPS6KA4 (MSK2) = molecular target: T20, RPS6KA4 (MSK2) (Homo sapiens, UniProt O75676); experiment: SelectScreen ZLYTE; type: biochemical; details: ATP Km, read-out: Percentage of inhibition
T20 construct: purchased Life Technologies
Method in brief: as §2

RPS6KA6 (RSK4) = molecular target: T21, RPS6KA6 (RSK4) (Homo sapiens, UniProt Q9UK32); experiment: SelectScreen ZLYTE; type: biochemical; details: ATP Km, read-out: Percentage of inhibition
T21 construct: purchased Life Technologies
Method in brief: as §2

SGK (SGK1) = molecular target: T22, SGK (SGK1) (Homo sapiens, UniProt O00141); experiment: SelectScreen ZLYTE; type: biochemical; details: ATP Km, read-out: Percentage of inhibition
T22 construct: purchased Life Technologies
Method in brief: as §2

SRC N1 = SRC N1 (Homo sapiens, UniProt P12931); experiment: SelectScreen ZLYTE; type: biochemical; details: ATP Km, read-out: Percentage of inhibition
Method in brief: as §2

Sequence of MAPKAPK5 (PRAK) (Q8IW41 whole entry): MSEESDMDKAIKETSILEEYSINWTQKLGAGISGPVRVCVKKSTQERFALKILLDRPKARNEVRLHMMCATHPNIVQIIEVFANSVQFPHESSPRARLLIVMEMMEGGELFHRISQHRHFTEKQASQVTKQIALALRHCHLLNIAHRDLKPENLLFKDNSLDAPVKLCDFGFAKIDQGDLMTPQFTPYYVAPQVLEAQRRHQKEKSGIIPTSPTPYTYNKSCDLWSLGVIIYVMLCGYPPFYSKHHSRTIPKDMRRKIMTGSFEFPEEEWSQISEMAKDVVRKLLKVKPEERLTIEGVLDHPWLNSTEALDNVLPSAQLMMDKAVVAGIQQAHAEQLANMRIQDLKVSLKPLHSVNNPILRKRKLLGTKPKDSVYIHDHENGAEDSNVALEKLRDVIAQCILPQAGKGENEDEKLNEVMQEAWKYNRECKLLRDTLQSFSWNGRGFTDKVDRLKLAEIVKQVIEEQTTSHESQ
T7 sequence (P52564 whole entry): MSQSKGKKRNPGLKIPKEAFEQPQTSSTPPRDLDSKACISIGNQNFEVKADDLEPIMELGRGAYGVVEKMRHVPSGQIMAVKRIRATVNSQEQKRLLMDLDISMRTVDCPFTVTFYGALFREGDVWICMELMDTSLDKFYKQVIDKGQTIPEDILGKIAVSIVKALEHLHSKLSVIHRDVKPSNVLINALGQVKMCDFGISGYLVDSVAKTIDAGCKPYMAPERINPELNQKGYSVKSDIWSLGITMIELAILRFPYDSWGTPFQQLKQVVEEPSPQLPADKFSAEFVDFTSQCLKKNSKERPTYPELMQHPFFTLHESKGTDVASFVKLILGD
Sequence of MAPK12 (p38 gamma) (P53778 whole entry): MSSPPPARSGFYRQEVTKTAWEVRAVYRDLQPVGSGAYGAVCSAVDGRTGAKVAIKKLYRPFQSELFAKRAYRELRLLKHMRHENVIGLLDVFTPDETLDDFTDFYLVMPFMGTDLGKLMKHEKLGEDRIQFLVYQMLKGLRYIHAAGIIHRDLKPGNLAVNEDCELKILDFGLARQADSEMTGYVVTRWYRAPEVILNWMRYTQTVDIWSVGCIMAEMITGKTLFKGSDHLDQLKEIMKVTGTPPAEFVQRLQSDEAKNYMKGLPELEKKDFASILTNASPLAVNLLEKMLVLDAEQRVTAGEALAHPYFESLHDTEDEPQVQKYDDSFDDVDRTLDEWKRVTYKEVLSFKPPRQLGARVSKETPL
T3 sequence (Q9HAZ1 whole entry): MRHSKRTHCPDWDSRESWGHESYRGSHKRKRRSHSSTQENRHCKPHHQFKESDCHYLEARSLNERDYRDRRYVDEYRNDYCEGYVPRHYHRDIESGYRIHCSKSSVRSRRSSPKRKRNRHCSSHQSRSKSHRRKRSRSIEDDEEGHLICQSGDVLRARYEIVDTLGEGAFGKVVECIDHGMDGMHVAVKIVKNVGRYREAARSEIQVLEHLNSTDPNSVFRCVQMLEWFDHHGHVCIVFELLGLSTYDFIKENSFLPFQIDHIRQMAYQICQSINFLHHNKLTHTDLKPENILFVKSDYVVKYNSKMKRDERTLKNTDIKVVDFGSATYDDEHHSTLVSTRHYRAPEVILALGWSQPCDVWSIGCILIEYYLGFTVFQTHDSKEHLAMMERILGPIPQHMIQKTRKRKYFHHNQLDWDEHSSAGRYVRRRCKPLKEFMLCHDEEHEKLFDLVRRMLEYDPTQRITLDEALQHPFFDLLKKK
T22 sequence (O00141 whole entry): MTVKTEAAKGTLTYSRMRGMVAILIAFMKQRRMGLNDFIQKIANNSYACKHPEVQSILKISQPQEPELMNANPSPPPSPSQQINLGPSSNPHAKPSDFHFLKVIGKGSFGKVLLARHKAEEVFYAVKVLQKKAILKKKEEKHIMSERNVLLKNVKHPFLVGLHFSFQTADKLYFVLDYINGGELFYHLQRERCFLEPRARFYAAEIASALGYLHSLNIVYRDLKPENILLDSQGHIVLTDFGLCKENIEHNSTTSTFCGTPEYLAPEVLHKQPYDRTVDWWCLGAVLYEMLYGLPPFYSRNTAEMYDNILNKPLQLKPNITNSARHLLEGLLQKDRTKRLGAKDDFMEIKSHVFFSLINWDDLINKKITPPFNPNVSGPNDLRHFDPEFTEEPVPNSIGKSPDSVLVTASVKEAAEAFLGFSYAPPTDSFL
T5 sequence (Q02750 whole entry): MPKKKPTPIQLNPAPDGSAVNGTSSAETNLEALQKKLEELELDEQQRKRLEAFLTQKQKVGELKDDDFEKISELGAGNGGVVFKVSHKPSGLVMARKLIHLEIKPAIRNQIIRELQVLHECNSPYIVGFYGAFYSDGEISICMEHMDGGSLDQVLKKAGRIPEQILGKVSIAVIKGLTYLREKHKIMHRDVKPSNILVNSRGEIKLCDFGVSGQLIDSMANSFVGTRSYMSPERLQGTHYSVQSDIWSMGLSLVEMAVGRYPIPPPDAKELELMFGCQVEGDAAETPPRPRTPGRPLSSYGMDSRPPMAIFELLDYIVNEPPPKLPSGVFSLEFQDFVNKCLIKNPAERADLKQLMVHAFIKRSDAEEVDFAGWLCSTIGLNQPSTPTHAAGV
T18 sequence (P10721 26-976 V560G): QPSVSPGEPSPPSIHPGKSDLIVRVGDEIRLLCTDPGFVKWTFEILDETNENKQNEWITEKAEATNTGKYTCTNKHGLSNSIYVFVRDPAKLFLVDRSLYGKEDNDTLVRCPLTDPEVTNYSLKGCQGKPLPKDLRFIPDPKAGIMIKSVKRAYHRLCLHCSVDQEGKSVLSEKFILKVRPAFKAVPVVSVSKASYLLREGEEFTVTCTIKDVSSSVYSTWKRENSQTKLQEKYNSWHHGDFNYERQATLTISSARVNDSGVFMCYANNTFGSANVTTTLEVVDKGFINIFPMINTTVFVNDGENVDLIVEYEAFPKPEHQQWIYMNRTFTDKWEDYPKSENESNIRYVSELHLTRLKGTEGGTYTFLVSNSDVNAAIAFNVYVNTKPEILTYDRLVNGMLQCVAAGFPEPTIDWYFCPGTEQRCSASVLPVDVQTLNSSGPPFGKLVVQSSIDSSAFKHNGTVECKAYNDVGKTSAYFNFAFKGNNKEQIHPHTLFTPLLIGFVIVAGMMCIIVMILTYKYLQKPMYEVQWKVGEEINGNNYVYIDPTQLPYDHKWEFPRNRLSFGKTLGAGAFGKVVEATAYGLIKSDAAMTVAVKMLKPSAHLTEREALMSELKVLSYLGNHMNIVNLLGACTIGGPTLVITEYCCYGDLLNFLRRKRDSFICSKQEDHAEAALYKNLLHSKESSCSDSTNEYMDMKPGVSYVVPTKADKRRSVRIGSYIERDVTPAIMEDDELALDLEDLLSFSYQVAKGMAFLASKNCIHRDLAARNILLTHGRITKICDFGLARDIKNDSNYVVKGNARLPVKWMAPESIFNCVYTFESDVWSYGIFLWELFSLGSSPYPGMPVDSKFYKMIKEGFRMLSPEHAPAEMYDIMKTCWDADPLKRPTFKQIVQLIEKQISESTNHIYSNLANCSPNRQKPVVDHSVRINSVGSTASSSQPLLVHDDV
Sequence of EPHA3 (P29320 21-983): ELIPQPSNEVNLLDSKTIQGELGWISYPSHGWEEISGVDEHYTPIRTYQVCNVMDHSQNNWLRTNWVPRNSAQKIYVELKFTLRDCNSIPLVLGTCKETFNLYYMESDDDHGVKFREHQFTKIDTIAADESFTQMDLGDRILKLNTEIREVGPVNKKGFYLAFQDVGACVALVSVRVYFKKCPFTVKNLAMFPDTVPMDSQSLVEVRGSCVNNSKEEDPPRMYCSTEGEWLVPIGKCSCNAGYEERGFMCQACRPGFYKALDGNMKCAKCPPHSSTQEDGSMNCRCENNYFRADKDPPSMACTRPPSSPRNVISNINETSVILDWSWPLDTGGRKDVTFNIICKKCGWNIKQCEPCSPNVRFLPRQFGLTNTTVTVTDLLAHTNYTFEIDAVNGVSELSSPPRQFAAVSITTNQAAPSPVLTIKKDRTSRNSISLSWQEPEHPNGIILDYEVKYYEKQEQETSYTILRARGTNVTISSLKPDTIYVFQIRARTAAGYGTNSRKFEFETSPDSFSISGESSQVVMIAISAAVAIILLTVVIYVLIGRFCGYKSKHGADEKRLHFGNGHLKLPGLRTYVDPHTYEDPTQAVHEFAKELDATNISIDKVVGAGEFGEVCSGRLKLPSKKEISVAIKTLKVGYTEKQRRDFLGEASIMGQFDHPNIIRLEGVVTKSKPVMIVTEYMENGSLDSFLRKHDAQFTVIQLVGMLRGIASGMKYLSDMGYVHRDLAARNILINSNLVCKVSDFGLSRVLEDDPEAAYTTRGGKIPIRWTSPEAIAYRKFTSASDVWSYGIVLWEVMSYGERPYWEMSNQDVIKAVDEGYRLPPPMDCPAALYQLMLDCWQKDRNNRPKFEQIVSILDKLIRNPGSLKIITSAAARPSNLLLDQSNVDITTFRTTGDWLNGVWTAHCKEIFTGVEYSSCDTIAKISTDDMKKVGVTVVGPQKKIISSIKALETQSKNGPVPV
Sequence of CSNK1E (CK1 epsilon) R178C (P49674 whole entry R178C): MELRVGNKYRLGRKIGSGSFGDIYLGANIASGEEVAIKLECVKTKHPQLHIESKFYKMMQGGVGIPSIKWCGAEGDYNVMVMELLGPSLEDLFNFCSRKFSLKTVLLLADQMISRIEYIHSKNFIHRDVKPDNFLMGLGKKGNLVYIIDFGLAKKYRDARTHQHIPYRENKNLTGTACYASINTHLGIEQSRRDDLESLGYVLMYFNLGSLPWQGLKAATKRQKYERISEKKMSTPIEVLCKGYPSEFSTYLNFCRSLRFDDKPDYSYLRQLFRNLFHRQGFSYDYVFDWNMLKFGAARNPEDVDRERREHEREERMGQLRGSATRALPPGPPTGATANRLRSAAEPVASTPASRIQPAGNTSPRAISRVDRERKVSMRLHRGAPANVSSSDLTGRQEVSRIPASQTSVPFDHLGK
T17 sequence (P10721 26-976 T670I): as the sequence (P10721 26-976 V560G) above, with G535V, T645I counted along it

In the case of `COc1ccc2[nH]c3c(=O)[nH]c4ccc(O)cc4c3c2c1` [Compound 55, 2-Hydroxy-10-methoxy-5,7-dihydro-6H-indolo[2,3-c]quinolin-6-one], the “Inhibition of intracellular Haspin (H3T3ph signal)” value [1] is reported as “could inhibit intracellular Haspin”, the inhibition at 1 µM (AMPK (A1/B1/G2)) is reported as 81% and the inhibition at 1 µM (AMPK (A2/B2/G2)) is reported as 80%. For the same molecule, the inhibition at 1 µM (CLK4) was 100%, the inhibition at 1 µM (DAPK2) was 90% and the inhibition at 1 µM (EPHA3) was 13%. The inhibition at 1 µM (MAP2K1 (MEK1)) was 98%, the inhibition at 1 µM [2] was 98% and the inhibition at 1 µM (MAP2K6 (MKK6)) was 2%. For the same molecule, the inhibition at 1 µM (MAPK8 (JNK1)) was 43%, the inhibition at 1 µM (RIPK2) was 13% and the inhibition at 1 µM (ULK3) was 45%. The inhibition at 1 µM (WNK3) was 2%, the inhibition at 1 µM (ACVR1B (ALK4)) was -13% and the inhibition at 1 µM (CDK1/cyclin B) was 35%. The inhibition at 1 µM [3] was 70%, the inhibition at 1 µM (DYRK1A) was 96% and the inhibition at 1 µM (EPHA1) was 33%. It also gave an inhibition at 1 µM (ERBB4 (HER4)) of 20%, an inhibition at 1 µM (FRAP1 (mTOR)) of 6% and an inhibition at 1 µM (HIPK4) of 24%. It also gave an inhibition at 1 µM (JAK2 JH1 JH2 V617F) of 36%, an inhibition at 1 µM (KIT T670I) of 4% and an inhibition at 1 µM (KIT V560G) of 27%. It also gave an inhibition at 1 µM (MAPK12 (p38 gamma)) of 19%, an inhibition at 1 µM (MAPK13 (p38 delta)) of 20% and an inhibition at 1 µM (MAPKAPK5 (PRAK)) of 22%. For the same molecule, the inhibition at 1 µM (MYLK2 (skMLCK)) was 61%, the inhibition at 1 µM (NIM1K) was 9% and the inhibition at 1 µM (RPS6KA4 (MSK2)) was 39%. The inhibition at 1 µM (RPS6KA6 (RSK4)) was 93%, the inhibition at 1 µM (SGK (SGK1)) was 29% and the inhibition at 1 µM (SRC N1) was 59%. The melting point was 202 to 205 °C.
